Some results are limits rather than exact numbers.

Drawing on ChEMBL document CHEMBL5543059, “Discovery of anti-inflammatory natural flavonoids: Diverse scaffolds and promising leads for drug discovery” (Eur J Med Chem, 2023), this text covers IC50 and Activity for nine molecules.

Assay [1] deals with RAW264.7. As to the kind of experiment: Antiinflammatory activity against mouse RAW264.7 cells assessed as inhibition of LPS-stimulated TNF-alpha level by ELISA method. In kind it is functional, cell-based. In general terms: In an ELISA, binding on a coated surface is turned into a signal by an enzyme label.
The test system of assay [2] is Rattus norvegicus. As to the kind of experiment: Anti-inflammatory activity in LPS-induced Sprague-Dawley rat assessed as reduction in TNF-alpha level at 20 mg/kg, po pre-incubated for 1 hr with compound followed by LPS-stimulation measured for 24 hrs by ELISA analysis. In kind it is functional. Conditions: time 25 hrs. Set-up: scale not given: the % may be the effect or the level left.

Assay [3] relates to RAW264.7. As to the kind of experiment: Antiinflammatory activity against mouse RAW264.7 cells assessed as inhibition of LPS-stimulated IL-1beta level by ELISA method. The format is functional, cell-based.
In assay [4] the test system is Rattus norvegicus. As to the kind of experiment: Anti-inflammatory activity in LPS-induced Sprague-Dawley rat assessed as reduction in IL-1beta level at 20 mg/kg, po pre-incubated for 1 hr with compound followed by LPS-stimulation measured for 24 hrs by ELISA analysis. Conditions: time 25 hrs. Also noted: scale not given: the % may be the effect or the level left. The format is functional.

Assay [5] deals with J774.A1. As to the kind of experiment: Antiinflammatory activity against mouse J774.A1 cells assessed as inhibition of LPS-stimulated TNF-alpha level by ELISA method. In kind it is functional, cell-based. Conditions: Mus musculus, J774.A1; read-out: IC50.
In assay [6] the test system is RAW264.7. As to the kind of experiment: Anti-inflammatory activity against mouse RAW264.7 cells assessed as inhibition of TNF-alpha production incubated for 18 hrs by ELISA analysis. The format is functional, cell-based. The settings on record: RAW264.7, 18 h.
Assay [7] deals with J774.A1. As to the kind of experiment: Antiinflammatory activity against mouse J774.A1 cells assessed as inhibition of LPS-stimulated IL-1beta level by ELISA method. In kind it is functional, cell-based.
The test system of assay [8] is RAW264.7. As to the kind of experiment: Anti-inflammatory activity against mouse RAW264.7 cells assessed as inhibition of IL-1beta level incubated for 18 hrs by ELISA analysis. In kind it is functional, cell-based. The settings on record: RAW264.7, 18 h.
Assay [9] deals with RAW264.7. As to the kind of experiment: Anti-inflammatory activity against mouse RAW264.7 cells assessed as inhibition of LPS-induced IL-1beta mRNA expression level pretreated for 30 mins followed by LPS-induction and measured after 6 hrs by RT-PCR analysis. In kind it is functional, cell-based.
Assay [10] concerns J774.A1. As to the kind of experiment: Anti-inflammatory activity against mouse J774.A1 cells assessed as inhibition of LPS-induced IL-1beta mRNA expression level pretreated for 30 mins followed by LPS-induction and measured after 6 hrs by RT-PCR analysis. The format is functional, cell-based.
In a further assay the test system is BV-2. As to the kind of experiment: Anti-inflammatory activity against mouse BV-2 cells assessed as inhibition of LPS-induced IL-1beta secretion at 25 uM pretreated for 2 hrs followed stimulated with LPS for 22 hrs by ELISA analysis relative to control. The format is functional. Set-up: scale not given: the % may be the effect or the level left. Conditions: time 24 hrs.

Assay [11] deals with RAW264.7. As to the kind of experiment: Antiinflammatory activity in mouse RAW264.7 cells assessed as reduction in iNOS protein expression at 5 to 40 uM relative to control. In kind it is functional. Also noted: scale not given: the % may be the effect or the level left. The settings on record: dose 5-40 µM.
For assay [12], the system named is Rattus norvegicus. As to the kind of experiment: Antiinflammatory activity in LPS-induced Sprague-Dawley rat assessed as reduction in TNFalpha production in plasma at 20 mg/kg, ip pretreated for 30 mins followed by LPS induction measured after 4 hrs by ELISA method relative to control. In kind it is functional. Also noted: scale not given: the % may be the effect or the level left. Conditions: time 4.5 hrs.

The subject of assay [13] is J774.A1. As to the kind of experiment: Antiinflammatory activity in LPS-induced mouse J774.A1 cells assessed as reduction in IL-1beta production pretreated for 30 mins followed by LPS induction measured after 2 hrs by ELISA method. In kind it is functional, cell-based.
Assay [14] concerns RAW264.7. As to the kind of experiment: Antiinflammatory activity in LPS-induced mouse RAW264.7 cells assessed as reduction in IL-1beta production pretreated for 30 mins followed by LPS induction measured after 2 hrs by ELISA method. The format is functional, cell-based.
Assay [15] relates to RAW264.7. As to the kind of experiment: Antiinflammatory activity in LPS-induced mouse RAW264.7 cells assessed as reduction in TNFalpha production pretreated for 30 mins followed by LPS induction measured after 2 hrs by ELISA method. The format is functional, cell-based.
Assay [16] deals with Rattus norvegicus. As to the kind of experiment: Antiinflammatory activity in LPS-induced Sprague-Dawley rat assessed as reduction in IL-1beta production in plasma at 20 mg/kg, ip pretreated for 30 mins followed by LPS induction measured after 4 hrs by ELISA method relative to control. The format is functional. The settings on record: time 4.5 hrs. Set-up: scale not given: the % may be the effect or the level left.

In assay [17] the test system is J774.A1. As to the kind of experiment: Antiinflammatory activity in LPS-induced mouse J774.A1 cells assessed as reduction in TNFalpha production pretreated for 30 mins followed by LPS induction measured after 2 hrs by ELISA method. The format is functional, cell-based.
For assay [18], the system named is RAW264.7. As to the kind of experiment: Anti-inflammatory activity in mouse RAW264.7 cells assessed as inhibition of LPS-induced NO production by Griess reagent assay. In kind it is functional, cell-based. On the technique in general: The Griess reaction detects nitrite, a stable product of nitric oxide.
For assay [19], the system named is RAW264.7. As to the kind of experiment: Anti-inflammatory activity against mouse RAW264.7 cells assessed as inhibition of LPS-induced NO production pre-incubated for 1 hr followed by compound addition and measured after 18 hrs by Griess reagent based analysis. The format is functional, cell-based.
For another assay, the system named is Peritoneal macrophage. As to the kind of experiment: Antiinflammatory activity in mouse peritoneal macrophages assessed as reduction in LPS-induced TNFalpha level at 20 uM incubated for 4 hrs by ELISA method relative to control. In kind it is functional. Also noted: scale not given: the % may be the effect or the level left.
The subject of another assay is Neutrophil. As to the kind of experiment: Inhibition of fMLF/CB-induced human Neutrophil activation assessed as reduction in elastase release using MeO-Suc-Ala-Ala-Pro-Val-pnitroanilide as substrate incubated for 5 mins. In kind it is functional, cell-based.

For the molecule `COc1cc(O)c2c(c1)OC(c1ccccc1)CC2=O` (configuration not stated), the 50% inhibitory concentration (IC50) – broadly, the point on the concentration scale where inhibition reaches its midpoint – is 23.5 µM with RAW264.7 [1]; 17.3 µM in the assay on RAW264.7 [3]; 37.5 µM with J774.A1 [5]; less than 22 µM with RAW264.7 [6]; 19.6 µM in the assay with J774.A1 [7]; 40 µM with RAW264.7 [8]. In addition, the Activity was 48.6% with Rattus norvegicus [2] and 53.1% in the assay on Rattus norvegicus [4].
`COc1cc(O)c(C(=O)/C=C/c2ccccc2)c(O)c1`: the IC50 with RAW264.7 [9] was 43.1 µM; with J774.A1 [10], 42.8 µM.
In the case of `COc1ccc(-c2cc(=O)c3c(O)cc(OC)c(O)c3o2)cc1`, in the assay on BV-2, the Activity is listed as more than 50%.
`CC(C)=CCc1c([C@H]2Oc3cc(O)cc(O)c3C(=O)[C@@H]2O)cc2c(c1O)OC(C)(C)C=C2`: in the assay with RAW264.7 [11], the Activity amounted to 42.8%.
Consider `COc1cc(O)c(CC=C(C)C)c2oc(=O)cc(-c3ccccc3)c12`, for which the Activity with Rattus norvegicus [12] is 41.8%; in the assay on Rattus norvegicus [16] it was 55%. In addition, the IC50 was determined as 38.2 µM in the assay with J774.A1 [13], 29.2 µM in the assay with RAW264.7 [14], 21.3 µM with RAW264.7 [15] and 20.4 µM in the assay on J774.A1 [17].
With `CC(C)=CCC[C@@]1(C)C=Cc2c(ccc(C(=O)/C=C/c3ccc(O)c(O)c3)c2O)O1`, in the assay on RAW264.7 [18], the IC50 is 22.7 µM.
Consider `CC(C)=CCC/C(C)=C/Cc1c(C2CC(=O)c3c(cc(O)c(CC=C(C)C)c3O)O2)ccc(O)c1O` (configuration not stated), for which the half-maximal inhibitory concentration (IC50) with RAW264.7 [19] amounted to 2.4 µM.
Consider `Oc1cc(O)c2c(c1)O[C@H](c1cc(O)c(O)c(O)c1)CC2`, for which the Activity in the assay with Peritoneal macrophage turned out to be 22.6%.
For the molecule `Cc1c(O)cc2c(c1O)C(=O)[C@H](O)[C@@H](c1ccc(O)cc1)O2`, the IC50 in the assay on Neutrophil came to 6 µM.
